Earlier results in patent publication US20080234197A1, “Method(s) of stabilizing and potentiating the actions and administration of brain-derived neurotrophic factor (BDNF)” (priority 2007, published 2008).
Read-outs that look alike come from different tables or passages of the source.

Legend:
syntaxin 3 = settings: upon addition of fatty acid
[1] = test system: NPY and POMC neurons in the hypothalamus; settings: ob/ob mice, after administration
ARH explants = settings: 100 ng/ml for 72 hours, explants from neonatal mice, vs control
db/db mice = settings: once or twice per week (70 mg/kg/wk) for 3 weeks, vs control

CCCCCCCC/C=C\CCCCCCCC(=O)O [oleic acid]
intrinsic tyrosine fluorescence of syntaxin 3 (syntaxin 3): ineffective

leptin: adiposity hormone produced by the white adipose tissue
time to normalization of synaptic density [1]: ≤ 6 h
induction of neurites from ARH explants (ARH explants): significant induction of neurites

CC/C=C\C/C=C\C/C=C\CCCCCCCC(=O)O [ALA, alpha-linolenic acid]
intrinsic tyrosine fluorescence of syntaxin 3 (syntaxin 3): marked changes

CCCCC/C=C\C/C=C\CCCCCCCC(=O)O [LA, cis-linoleic acid]
intrinsic tyrosine fluorescence of syntaxin 3 (syntaxin 3): marked changes

CCCCC/C=C\C/C=C\C/C=C\C/C=C\CCCC(=O)O [AA, arachidonic acid]
expression of BDNF (spinal cord neurons; 2-hour exposure, spinal cord neurons): markedly diminished
intrinsic tyrosine fluorescence of syntaxin 3 (syntaxin 3): marked changes
dopamine uptake (glioma cells; 20-160 microM, pre-incubated 15-30 min): stimulated
dopamine uptake (glioma cells; 160 microM, longer pre-exposures 45-60 min): inhibited

CN1CCCC1c1cccnc1 (centres unmarked) [nicotine]
protection against arachidonic acid-induced apoptosis of spinal cord neurons (spinal cord neurons): fully protected
prevention of arachidonic acid-induced decrease of BDNF expression (spinal cord neurons; pretreatment with 10-microM): fully prevented

B1: BDNF: brain-derived neurotrophic factor, a neurotrophin protein (protein, UniProt P23560 19-247, looked up)
Neurotrophic factor BDNF …: APMKEANIRGQGGLAYPGVRTHGTLESVNGPKAGSRGLTSLADTFEHVIEELLDEDQKVRPNEENNKDADLYTSRVMLSSQVPLEPPLLFLLEEYKNYLDAANMSMRVRRHSDPARRGELSVCDSISEWVTAADKKTAVDMSGGTVTVLEKVPVSKGQLKQYFYETKCNPMGYTKEGCRGIDKRHWNSQCRTTQSYVRALTMDSKKRIGWRFIRIDTSCVCTLTIKRGR
protection against arachidonic acid-induced apoptosis of spinal cord neurons (spinal cord neurons): fully protected
blood glucose concentrations (db/db mice): significantly reduced
hemoglobin A1c (HbA1c) (db/db mice): significantly reduced
